A short description of test [1]: activity of terminally substituted pentapeptides in Twomey solution compared with the basic pentapeptide of Example I. It is filed as cell-based.
The test system of test [2] is chicken bone marrow. Description: induction of Th-1 (T-cell) antigen on chicken bone marrow, cytotoxicity assay. The following applies: peptide at 1 μg/mil (method text: 0.1 μg/ml); control incubations subtracted. It is filed as cell-based. The protocol:
To determine the pharmacological activity and characteristics of these pentapeptides, use was made of the induction of Th-1 (T-cell) antigen on chicken bone marrow for use as an assay of the peptides at a concentration of 1 μg/mil. This method is described in Science, Brand et al, Vol. 193, pp. 319-321, July, 1976. In this method, pooled cells from femur and tibiotarsus of newly hatched chicks of strain SC (Hy-Line) are fractionated by ultracentrifugation on a five-layer discontinuous bovine serum albumin (BSA) gradient (11). Cells from each interface are washed and suspended for incubation at a concentration of 5×10^6 cells per milliliter with the peptide (0.1 μg/ml) in RPMI 1630 medium supplemented with 15 mM Hepes, 5 percent y-globulin-free fetal calf serum, deoxyribonuclease (14 to 18 unit/ml), heparin (5 unit/ml), penicillin (100 unit/ml), and streptomycin (100 μg/ml). Controls are incubated with BSA (1 μg/ml) or medium alone. After incubation, the cells are tested in the cytotoxicity assay using chicken and guinea pig complement fractions. The proportion of Bu-1^+ or Th-1^+ cells in each layer are calculated as a cytotoxicity index, 100 (a-b)/a, where a and b are the percentages of viable cells in the complement control and test preparation, respectively. The percentage of cells induced is obtained by subtracting the mean values in the control incubations without inducing agents (usually 1 to 3 percent) from those of the test inductions.

Test [3] concerns precursors present in bone marrow or spleen. The following applies: precursors from bone marrow or spleen; cited from earlier work.

Where a SMILES comes first, the peptide text is derived from it.

Turning to `CC[C@H](C)[C@H](NC(=O)[C@H](CC(N)=O)NC(=O)[C@H](Cc1ccc(O)cc1)NC(C)=O)C(=O)N[C@@H](CCC(N)=O)C(=O)N[C@@H](CCCCN)C(=O)O` [Example III, CH3 CONH-TYR-ASN-ILE-GLN-LYS-COOH] (Ac-YNIQK-OH), the “activity relative to the basic pentapeptide of Example I” value in test [1] (1 μg/ml in 14% Twomey solution) was “maximum and minimum activities comparable to the basic pentapeptide of Example I”. Take `CC[C@H](C)[C@H](NC(=O)[C@H](CC(N)=O)NC(=O)[C@@H](N)Cc1ccc(O)cc1)C(=O)N[C@@H](CCC(N)=O)C(=O)N[C@@H](CCCCN)C(N)=O` [Example IV, H2 N-TYR-ASN-ILE-GLN-LYS-CONH2] (H-YNIQK-NH2): in test [1] (1 μg/ml in 6% Twomey solution), the “activity relative to the basic pentapeptide of Example I” value was “activity comparable to the basic pentapeptide of Example I”.

On to `CC[C@H](C)[C@H](NC(=O)[C@H](CC(N)=O)NC(=O)[C@H](C)N)C(=O)N[C@@H](CCC(N)=O)C(=O)N[C@@H](CCCCN)C(=O)O` [Example XXII, H2 N-ALA-ASN-ILE-GLN-LYS-COOH] (H-ANIQK-OH), for which the “% Induction of Th-1 (T-cell) antigen on chicken bone marrow” value (shortened to “% Induction of Th-1 (T-cell) antigen”) in test [2] was 12%. In the case of `CC[C@H](C)[C@H](NC(=O)[C@H](C)NC(=O)[C@@H](N)Cc1ccc(O)cc1)C(=O)N[C@@H](CCC(N)=O)C(=O)N[C@@H](CCCCN)C(=O)O` [Example XXIII, H2 N-TYR-ALA-ILE-GLN-LYS-COOH] (H-YAIQK-OH), in test [2], the “% Induction of Th-1 (T-cell) antigen” value came out at 15%. For the compound `C[C@H](NC(=O)[C@H](CC(N)=O)NC(=O)[C@@H](N)Cc1ccc(O)cc1)C(=O)N[C@@H](CCC(N)=O)C(=O)N[C@@H](CCCCN)C(=O)O` [Example XXIV, H2 N-TYR-ASN-ALA-GLN-LYS-COOH] (H-YNAQK-OH), the “% Induction of Th-1 (T-cell) antigen” value in test [2] is 21%. With Ubiquitin, the “concentration inducing in vitro differentiation of both T-cell and B-cell immunocytes” value in test [3] was “nanogram concentrations”.

Source of the values: patent US4190647A, “Polypeptides and methods” (Sloan-Kettering Institute for Cancer Research, priority 1979, dated 1980).
